Results on 7 compounds are retold here after paper PMC6358909, “Synthesis and Biochemical Evaluation of Lid-Open D-Amino Acid Oxidase Inhibitors” (Molecules, 2019).

SMILES strings stand for the structures.

One experiment has as its system DAAO. Set-up: method as in PMID 25001371. Conditions: cited from earlier work.
The next experiment has as its target hDAO (Homo sapiens, UniProt P14920). The experiment is described as follows: Differential scanning fluorimetry (DSF) measurement. In kind it is binding. Conditions: for Tm: hDAO without inhibitor 59.4 °C; for ~ΔTm: shift versus hDAO without inhibitor. The procedure:
We started with compounds 8 and 9 (Figure 3). […] The activity of this 3-Cl substituted derivative (11) was lower than 100 nM therefore we synthesized the 3-Me derivative (12). […] DAAO binding and activity of representative compounds have been confirmed in orthogonal differential scanning fluorometry (DSF) and the coupled Horseradish peroxidase (HRP)/Amplex Red assays, respectively (see Supplementary materials). The designed compounds were docked into the protein structure obtained from the complex of 8 by the removal of the ligand. […]
Scheme S4. Synthesis of the headgroup […]
Results from differential scanning fluorimetry (DSF) measurements
Compound Structure DSF measurement […]
For orientation: In DSF a fluorescence change marks the thermal transition of the protein.

A further experiment concerns the target T1, Human DAAO (Homo sapiens, UniProt P14920).
T1 construct: purchased TargetEx Ltd. (Dunakeszi, Hungary)
The experiment is described as follows: KYNA enzyme inhibition assay (D-kynurenine substrate, fluorescence). In kind it is biochemical. Conditions: 5 µM FAD, pH 8, 37 °C 1 h, standard deviations in parenthesis. The method, then: The prepared compounds were tested as DAAO inhibitors with the KYNA enzyme inhibitory assay. Although D-serine is a natural substrate of DAAO, its metabolite is not suitable for fluorometric evaluation. However in the applied assay, D-kynurenine can be metabolized by DAAO [19] and the metabolite (KYNA) has a favorable fluorescence property. Thus it can be used for fluorescence measurements.
D-2-Amino-4-(2-aminophenyl)-4-oxobutanoic acid (D-KYN) was used to measure D-amino acid oxidase activity based on the protocol described in ref. [18, 20]. Human DAAO (purchased from TargetEx Ltd. (Dunakeszi, Hungary)) was used for the measurements. The buffer contained 20 mM TRIS-HCl and 100 mM NaCl (pH = 8). Flavin adenine dinucleotide (FAD—obtained from Sigma (St. Louis, MO, USA)) in 5 µM concentration was also included in the assay. Compounds were dissolved originally in DMSO and the measured samples were diluted with the buffer solution (the final DMSO concentration was always below 5%). The mixed solution was incubated at 37 °C for 1 h. After the enzymatic reaction, ZnCl2 dissolved in H2O was added and vortex-mixed. Single point measurements were performed at 20 µm inhibitor concentration. For the IC50 measurements, the inhibitors were used at 5 nM, 50 nM, 500 nM, 2.5 µM, 5 µM, 10 µM, 50 µM. Measurements were carried out on a Citation3 cell imaging multi-mode microplate reader (BioTek Instruments Inc., Winooski, VT, USA) with […]. The applied wavelengths were 340 nm and 396 nm.
Result from the coupled HRP/Amplex Red assay for compound 13
Compound 13 was evaluated in both the KYNA and the coupled HRP/Amplex red assays. Assay […]
HRP/Amplex assay KYNA assay […]
hDAAO original concentration 1 µg / 1500 µL buffer 1 µg / 400 µL buffer hDAAO assay concentration 0.25 µg / 1500 µL buffer 0.25 µg / 400 µL buffer FAD conc. in assay 5 µM 5 µM
Ligand conc. in assay 20 µM 20 µM
Incubation period No Yes (1 hour, 37 °C)
Type of the measurement Kinetic (45 min) single point detection
Detection fluorescent fluorescent
Assay interference Yes No
Ligand autofluorescence No No
Dose response curve obtained for compound 13 using the HRP/Amplex red assay
(1 picture or pasted object on this page, not shown here)

T1 sequence (P14920 whole entry): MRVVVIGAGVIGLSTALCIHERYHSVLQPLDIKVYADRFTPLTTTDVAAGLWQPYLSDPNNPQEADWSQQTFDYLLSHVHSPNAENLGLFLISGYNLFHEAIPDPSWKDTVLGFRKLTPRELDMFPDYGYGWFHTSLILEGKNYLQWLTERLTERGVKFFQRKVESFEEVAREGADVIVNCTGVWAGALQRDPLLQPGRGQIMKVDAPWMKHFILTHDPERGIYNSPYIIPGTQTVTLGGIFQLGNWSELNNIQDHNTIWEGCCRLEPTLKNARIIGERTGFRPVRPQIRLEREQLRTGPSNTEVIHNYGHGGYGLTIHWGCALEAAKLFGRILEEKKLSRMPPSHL
hDAO, sequence (P14920 whole entry): as above

For `O=C(O)CCc1cc2c(-c3ccccc3)cc(=O)oc2cc1O` [Compound 7], the “competitive D-serine inhibitory properties” value in the experiment with DAAO is given as “low nanomolar range”.

As for `O=c1cc(-c2ccccc2)c2cc(CCc3cc(O)c(=O)[nH]n3)c(O)cc2o1` [Compound 8, reference compound], at hDAO, the midpoint of thermal melting (Tm) was determined as 74.7 °C and the “~ΔTm” value is around 15.3 °C. The IC50 at Human DAAO worked out at 0.112 µM.

Regarding `O=c1cc(-c2ccc(Cl)cc2)c2cc(CCc3cc(O)c(=O)[nH]n3)c(O)cc2o1` [Compound 9], at Human DAAO, the IC50 turned out to be 0.119 µM.

Consider `Cc1ccc(-c2cc(=O)oc3cc(O)c(CCc4cc(O)c(=O)[nH]n4)cc23)cc1` [Compound 10], for which the half-maximal inhibitory concentration (IC50) at Human DAAO turned out to be 0.474 µM.

For `O=c1cc(-c2cccc(Cl)c2)c2cc(CCc3cc(O)c(=O)[nH]n3)c(O)cc2o1` [Compound 11], on Human DAAO, the 50% inhibitory concentration (IC50) was found to be 0.069 µM.

For the compound `Cc1cccc(-c2cc(=O)oc3cc(O)c(CCc4cc(O)c(=O)[nH]n4)cc23)c1` [Compound 12], the 50% inhibitory concentration (IC50) at Human DAAO came to 0.052 µM.

As for `COc1cccc(-c2cc(=O)oc3cc(O)c(CCc4cc(O)c(=O)[nH]n4)cc23)c1` [Compound 13], at hDAO, the Tm was 72.0 °C and the “~ΔTm” value is around 12.6 °C. The IC50 at Human DAAO was 0.073 µM.

As a reminder, the Tm is the temperature at the midpoint of the melting transition. As a reminder, the IC50 is the midpoint of a concentration-inhibition curve.
